pIC50: −log10 of the molar value. Each block holds one molecule with its values, some of them ahead of it.
Target: recombinant PDE4 enzyme
Assay: PDE4 [3H] cAMP Scintillation Proximity Assay (SPA)
Type: biochemical
Settings: inhibition of PDE4; 30 nM [3H] cAMP, 1 hr at room temperature, yeast extract of recombinant PDE4 enzyme
Protocol: Measurement of Phosphodiesterase Activity was done using a [3H] cAMP Scintillation Proximity Assay (SPA) (GE Healthcare). Compounds to be tested were disolved in DMSO at a stock concentration of 1mM and serial dilutions were prepared in 50% DMSO to determine IC50s.
The reactions were conducted in 96-well plates (Corning, Ref.3604) at room temperature, in 0.1 ml of reaction buffer containing (final concentrations): 50 mM Tris-HCl, pH 7.5, 8.3 mM MgCl2, 1.7 mM EGTA, 30 nM [3H] cAMP (approximately 150000 dpm/well) with or without the inhibitors. The reaction was initiated by adding yeast extract of recombinant PDE4 enzyme.
Plates were shaken for 1 hr at room temperature and the incubation was terminated by adding 50 µl (0.5 mg /well) of SPA yttrium silicate beads (RPNQ 0150; GE Healthcare) in the presence of zinc sulfate. Plates were stored overnight in the dark and read on a TRILUX microtiter plate reader (Perkin Elmer).

SMILES: CCn1nc(-c2cccc(-c3cccc(C(=O)NCCN(C)C)c3)c2)cc(NC(=O)Nc2c(Cl)cncc2Cl)c1=O [Example 17, 3'-[5-({[(3,5-Dichloropyridin-4-yl)amino]carbonyl}amino)-1-ethyl-6-oxo-1,6-dihydropyridazin-3-yl]-N-[2-(dimethylamino)ethyl]biphenyl-3-carboxamide]
pIC50: 10.33

SMILES: CCn1nc(-c2cccc(-c3ccc(CC(=O)NCCN4CCCCC4)cc3)c2)cc(NC(=O)Nc2c(Cl)cncc2Cl)c1=O [Example 117, 2-(3'-(5-(3-(3,5-dichloropyridin-4-yl)ureido)-1-ethyl-6-oxo-1,6-dihydropyridazin-3-yl)biphenyl-4-yl)-N-(2-(piperidin-1-yl)ethyl)acetamide]
pIC50: 10.31

SMILES: CCn1nc(-c2cccc(-c3cccc(CC(=O)NCCN4CCCCC4)c3)c2)cc(NC(=O)Nc2c(Cl)cncc2Cl)c1=O [Example 118, 2-(3'-(5-(3-(3,5-dichloropyridin-4-yl)ureido)-1-ethyl-6-oxo-1,6-dihydropyridazin-3-yl)biphenyl-3-yl)-N-(2-(piperidin-1-yl)ethyl)acetamide]
pIC50: 10.00

SMILES: CCn1nc(-c2cccc(-c3cccc(CC(=O)NCCN4CCOCC4)c3)c2)cc(NC(=O)Nc2c(Cl)cncc2Cl)c1=O [Example 119, 2-(3'-(5-(3-(3,5-dichloropyridin-4-yl)ureido)-1-ethyl-6-oxo-1,6-dihydropyridazin-3-yl)biphenyl-3-yl)-N-(2-morpholinoethyl)acetamide]
pIC50: 10.21

SMILES: CCn1nc(-c2cccc(-c3cccc(C(=O)NCCCCCCCN(C)CCO)c3)c2)cc(NC(=O)Nc2c(Cl)cncc2Cl)c1=O [Example 120, 3'-(5-(3-(3,5-dichloropyridin-4-yl)ureido)-1-ethyl-6-oxo-1,6-dihydropyridazin-3-yl)-N-(7-((2-hydroxyethyl)(methyl)amino)heptyl)biphenyl-3-carboxamide]
pIC50: 10.51

SMILES: CCn1nc(-c2cccc(-c3cccc(C(=O)NCc4ccc(O)cc4)c3)c2)cc(NC(=O)Nc2c(Cl)cncc2Cl)c1=O [Example 138, 3'-[5-({[(3,5-dichloropyridin-4-yl)amino]carbonyl}amino)-1-ethyl-6-oxo-1,6-dihydropyridazin-3-yl]-N-(4-hydroxybenzyl)biphenyl-3-carboxamide]
pIC50: 9.41

More lines, in order of rising pIC50, values ahead:

pIC50: 9.63
SMILES: CCn1nc(-c2cccc(-c3cc(F)ccc3O)c2)cc(NC(=O)Nc2c(Cl)cncc2Cl)c1=O [Example 4, N-(3,5-Dichloropyridin-4-yl)-N'-[2-ethyl-6-(5'-fluoro-2'-hydroxybiphenyl-3-yl)-3-oxo-2,3-dihydropyridazin-4-yl]urea]

pIC50: 9.76
SMILES: CCn1nc(-c2cccc(-c3cccc(CC(=O)NC4CC4)c3)c2)cc(NC(=O)Nc2c(Cl)cncc2Cl)c1=O [Example 127, N-cyclopropyl-2-{3'-[5-({[(3,5-dichloropyridin-4-yl)amino]carbonyl}amino)-1-ethyl-6-oxo-1,6-dihydropyridazin-3-yl]biphenyl-3-yl}acetamide]

pIC50: 9.88
SMILES: CCn1nc(-c2cccc(-c3cccc(C(=O)NCCCN(C)C)c3)c2)cc(NC(=O)Nc2c(Cl)cncc2Cl)c1=O [Example 22, 3'-[5-({[(3,5-Dichloropyridin-4-yl)amino]carbonyl}amino)-1-ethyl-6-oxo-1,6-dihydropyridazin-3-yl]-N-[3-(dimethylamino)propyl]biphenyl-3-carboxamide]

pIC50: 9.90
SMILES: CCn1nc(-c2cccc(-c3cccc(C(=O)NC4CC4)c3)c2)cc(NC(=O)Nc2c(Cl)cncc2Cl)c1=O [Example 21, N-Cyclopropyl-3'-[5-({[(3,5-dichloropyridin-4-yl)amino]carbonyl}amino)-1-ethyl-6-oxo-1,6-dihydropyridazin-3-yl]biphenyl-3-carboxamide]

pIC50: 9.98
SMILES: CCn1nc(-c2cccc(-c3cccc(C(=O)NCCN4CCCCC4)c3)c2)cc(NC(=O)Nc2c(Cl)cncc2Cl)c1=O [Example 51, 3'-[5-({[(3,5-Dichloropyridin-4-yl)amino]carbonyl}amino)-1-ethyl-6-oxo-1,6-dihydropyridazin-3-yl]-N-(2-piperidin-1-ylethyl)biphenyl-3-carboxamide]

pIC50: 10.01
SMILES: CCn1nc(-c2cccc(-c3ccc(C(=O)O)cc3)c2)cc(NC(=O)Nc2c(Cl)cncc2Cl)c1=O [Example 26, 3'-[5-({[(3,5-Dichloropyridin-4-yl)amino]carbonyl}amino)-1-ethyl-6-oxo-1,6-dihydropyridazin-3-yl]biphenyl-4-carboxylic acid]

pIC50: 10.12
SMILES: CCn1nc(-c2cccc(-c3cc(O)cc(C(=O)NC4CC4)c3)c2)cc(NC(=O)Nc2c(Cl)cncc2Cl)c1=O [Example 126, N-cyclopropyl-3'-[5-({[(3,5-dichloropyridin-4-yl)amino]carbonyl}amino)-1-ethyl-6-oxo-1,6-dihydropyridazin-3-yl]-5-hydroxybiphenyl-3-carboxamide]

pIC50: 10.25
SMILES: CCn1nc(-c2cccc(-c3ccc(CC(=O)NCCCCCCCN(C)CCO)cc3)c2)cc(NC(=O)Nc2c(Cl)cncc2Cl)c1=O [Example 122, 2-(3'-(5-(3-(3,5-dichloropyridin-4-yl)ureido)-1-ethyl-6-oxo-1,6-dihydropyridazin-3-yl)biphenyl-4-yl)-N-(7-((2-hydroxyethyl)(methyl)amino)heptyl)acetamide]

pIC50: 10.43
SMILES: CCn1nc(-c2cccc(-c3cc(O)cc(C(=O)NCCCCCCCN(C)CCO)c3)c2)cc(NC(=O)Nc2c(Cl)cncc2Cl)c1=O [Example 124, 3'-(5-(3-(3,5-dichloropyridin-4-yl)ureido)-1-ethyl-6-oxo-1,6-dihydropyridazin-3-yl)-5-hydroxy-N-(7-((2-hydroxyethyl)(methyl)amino)heptyl)biphenyl-3-carboxamide]

Reference: patent EP2196465A1, “(3-oxo)pyridazin-4-ylurea derivatives as PDE4 inhibitors” (Almirall, S.A., priority 2008, dated 2010)
